Source: US10683216B2, “Selective adsorbent fabric for water purification” (Chemica Technologies, Inc., priority 2013, dated 2020)

Assays:
[1] = Kinetics of adsorption of organic toxins to ACF-SBX in Standard Synthetic Test Water; details: STW, pH 6.9~7.0; for ACF-SBX 50% (estimated time to achieve designated toxin removal): 50% removal; for ACF-SBX >95% (estimated time to achieve designated toxin removal): >95% removal
[2] = Kinetics of adsorption of organic toxins to ACF-H in Standard Synthetic Test Water; details: STW, pH 6.9~7.0; for ACF-H 50% (estimated time to achieve designated toxin removal): 50% removal; for ACF-H >95% (estimated time to achieve designated toxin removal): >95% removal
[3] = Kinetics of adsorption of organic toxins to ACF-OH in Standard Synthetic Test Water; details: STW, pH 6.9~7.0; for ACF-OH 50% (estimated time to achieve designated toxin removal): 50% removal; for ACF-OH >95% (estimated time to achieve designated toxin removal): >95% removal; for ACF-OH removal reached, in brackets in the >95% column: >95% not reached
[4] = physchem
[5] = Log P (logarithm of measured partition coefficient)

CCc1ccccc1 [ethylbenzene]
ACF-SBX 50% (estimated time to achieve designated toxin removal) [1]: 0.3 min | ACF-H 50% (estimated time to achieve designated toxin removal) [2]: 0.3 min | ACF-OH 50% (estimated time to achieve designated toxin removal) [3]: 0.3 min | ACF-OH >95% (estimated time to achieve designated toxin removal) [3]: 0.5 min

Brc1c(Br)c(Br)c(Oc2c(Br)c(Br)c(Br)c(Br)c2Br)c(Br)c1Br [deca-BDE, decabromodiphenyl ether]
ACF-SBX 50% (estimated time to achieve designated toxin removal) [1]: 0.5 min | ACF-H 50% (estimated time to achieve designated toxin removal) [2]: 0.4 min | logP [4]: 9.97

CCNc1nc(Cl)nc(NC(C)C)n1 [atrazine]
ACF-SBX 50% (estimated time to achieve designated toxin removal) [1]: 1.6 min | ACF-SBX >95% (estimated time to achieve designated toxin removal) [1]: 10.0 min | ACF-H 50% (estimated time to achieve designated toxin removal) [2]: 2.0 min | ACF-H >95% (estimated time to achieve designated toxin removal) [2]: 20.0 min | ACF-OH 50% (estimated time to achieve designated toxin removal) [3]: 6.0 min | ACF-OH removal reached, in brackets in the >95% column [3]: (90%) | logP [4]: 2.61

C[C@]12CC[C@@H]3c4ccc(O)cc4CC[C@H]3[C@@H]1CC[C@@H]2O [17β-estradiol]
ACF-SBX 50% (estimated time to achieve designated toxin removal) [1]: 0.5 min | ACF-SBX >95% (estimated time to achieve designated toxin removal) [1]: 10.0 min | ACF-H 50% (estimated time to achieve designated toxin removal) [2]: 0.5 min | ACF-H >95% (estimated time to achieve designated toxin removal) [2]: 10.0 min | ACF-OH 50% (estimated time to achieve designated toxin removal) [3]: 0.5 min | ACF-OH >95% (estimated time to achieve designated toxin removal) [3]: 50.0 min

Oc1cc(Cl)ccc1Oc1ccc(Cl)cc1Cl [triclosan]
ACF-SBX 50% (estimated time to achieve designated toxin removal) [1]: 1.7 min | ACF-SBX >95% (estimated time to achieve designated toxin removal) [1]: 46.7 min | ACF-H 50% (estimated time to achieve designated toxin removal) [2]: 2.5 min | ACF-H >95% (estimated time to achieve designated toxin removal) [2]: 55.0 min | ACF-OH 50% (estimated time to achieve designated toxin removal) [3]: 26.0 min | ACF-OH removal reached, in brackets in the >95% column [3]: (91%) | logP [5]: 4.53

CCOC(=O)c1ccccc1C(=O)OCC [diethyl phthalate]
ACF-SBX 50% (estimated time to achieve designated toxin removal) [1]: 3.5 min | ACF-SBX >95% (estimated time to achieve designated toxin removal) [1]: 25.0 min | ACF-H 50% (estimated time to achieve designated toxin removal) [2]: 5.0 min | ACF-H >95% (estimated time to achieve designated toxin removal) [2]: 50.0 min | ACF-OH 50% (estimated time to achieve designated toxin removal) [3]: 60.0 min | ACF-OH removal reached, in brackets in the >95% column [3]: (69%) | logP [4]: 2.42

CCCCCCCCCc1ccc(O)cc1 [4-nonylphenol]
ACF-SBX 50% (estimated time to achieve designated toxin removal) [1]: 5.0 min | ACF-SBX >95% (estimated time to achieve designated toxin removal) [1]: 45.0 min | ACF-H 50% (estimated time to achieve designated toxin removal) [2]: 2.0 min | ACF-H >95% (estimated time to achieve designated toxin removal) [2]: 30.0 min | ACF-OH 50% (estimated time to achieve designated toxin removal) [3]: 57.0 min | ACF-OH removal reached, in brackets in the >95% column [3]: (73%) | logP [4]: 5.76

Cc1ccc(O)cc1 [p-cresol]
logP [4]: 1.97

O=[N+]([O-])c1ccc(O)cc1 [4-nitrophenol]
ACF-SBX 50% (estimated time to achieve designated toxin removal) [1]: 1.5 min | ACF-SBX >95% (estimated time to achieve designated toxin removal) [1]: 20.0 min | ACF-H 50% (estimated time to achieve designated toxin removal) [2]: 0.8 min | ACF-H >95% (estimated time to achieve designated toxin removal) [2]: 20.0 min | ACF-OH 50% (estimated time to achieve designated toxin removal) [3]: 5.0 min | ACF-OH >95% (estimated time to achieve designated toxin removal) [3]: 60.0 min

Oc1ccc(Cl)cc1Cl [2,4-dichlorophenol]
ACF-SBX 50% (estimated time to achieve designated toxin removal) [1]: 2.3 min | ACF-SBX >95% (estimated time to achieve designated toxin removal) [1]: 30.0 min | ACF-H 50% (estimated time to achieve designated toxin removal) [2]: 1.5 min | ACF-H >95% (estimated time to achieve designated toxin removal) [2]: 30.0 min | ACF-OH 50% (estimated time to achieve designated toxin removal) [3]: 2.6 min | ACF-OH removal reached, in brackets in the >95% column [3]: (92%) | logP [4]: 3.17

CCCCC(CC)COC(=O)c1ccccc1C(=O)OCC(CC)CCCC (stereo not shown) [DEHP, bis(2-ethylhexyl)phthalate]
ACF-SBX 50% (estimated time to achieve designated toxin removal) [1]: 3.8 min | ACF-SBX >95% (estimated time to achieve designated toxin removal) [1]: 20.0 min | ACF-H 50% (estimated time to achieve designated toxin removal) [2]: 20.0 min | ACF-H >95% (estimated time to achieve designated toxin removal) [2]: 80.0 min | ACF-OH 50% (estimated time to achieve designated toxin removal) [3]: 43.3 min | ACF-OH removal reached, in brackets in the >95% column [3]: (92%) | logP [5]: 7.8

Cc1ccc(S(=O)(=O)[N-]Cl)cc1.[Na+] [chloramine-T]
ACF-SBX 50% (estimated time to achieve designated toxin removal) [1]: 3.3 min | ACF-SBX >95% (estimated time to achieve designated toxin removal) [1]: 25.0 min | ACF-H 50% (estimated time to achieve designated toxin removal) [2]: 3.3 min | ACF-H >95% (estimated time to achieve designated toxin removal) [2]: 25.0 min | ACF-OH 50% (estimated time to achieve designated toxin removal) [3]: 50.0 min | ACF-OH removal reached, in brackets in the >95% column [3]: (82%)

Clc1ccccc1Cl [o-dichlorobenzene]
ACF-SBX 50% (estimated time to achieve designated toxin removal) [1]: 0.8 min | ACF-SBX >95% (estimated time to achieve designated toxin removal) [1]: 3.0 min | ACF-H 50% (estimated time to achieve designated toxin removal) [2]: 1.5 min | ACF-H >95% (estimated time to achieve designated toxin removal) [2]: 3.0 min | ACF-OH 50% (estimated time to achieve designated toxin removal) [3]: 1.5 min | ACF-OH >95% (estimated time to achieve designated toxin removal) [3]: 3.0 min | logP [4]: 3.38

Clc1ccc(Cl)cc1 [p-dichlorobenzene]
ACF-SBX 50% (estimated time to achieve designated toxin removal) [1]: 1.0 min | ACF-SBX >95% (estimated time to achieve designated toxin removal) [1]: 2.0 min | ACF-H 50% (estimated time to achieve designated toxin removal) [2]: 1.0 min | ACF-H >95% (estimated time to achieve designated toxin removal) [2]: 2.0 min | ACF-OH 50% (estimated time to achieve designated toxin removal) [3]: 1.0 min | ACF-OH >95% (estimated time to achieve designated toxin removal) [3]: 2.0 min | Log P ([5]; logarithm of measured partition coefficient): 3.44

O=c1[nH]c(=O)c2[nH]c(=O)[nH]c2[nH]1 [uric acid]
ACF-SBX 50% (estimated time to achieve designated toxin removal) [1]: 3.0 min | ACF-SBX >95% (estimated time to achieve designated toxin removal) [1]: 30.0 min | ACF-H 50% (estimated time to achieve designated toxin removal) [2]: 3.0 min | ACF-H >95% (estimated time to achieve designated toxin removal) [2]: 30.0 min | ACF-OH 50% (estimated time to achieve designated toxin removal) [3]: 15.0 min | ACF-OH >95% (estimated time to achieve designated toxin removal) [3]: 60.0 min | logP [5]: -2.92

c1ccc2cc3ccccc3cc2c1 [anthracene]
ACF-SBX 50% (estimated time to achieve designated toxin removal) [1]: 0.4 min | ACF-SBX >95% (estimated time to achieve designated toxin removal) [1]: 12.5 min | ACF-H 50% (estimated time to achieve designated toxin removal) [2]: ^♦0.5 min | ACF-H >95% (estimated time to achieve designated toxin removal) [2]: 53.0 min | ACF-OH 50% (estimated time to achieve designated toxin removal) [3]: 0.4 min | ACF-OH >95% (estimated time to achieve designated toxin removal) [3]: 30.0 min

CN(C)C(=O)Nc1ccc(Cl)c(Cl)c1 [diuron]
ACF-SBX 50% (estimated time to achieve designated toxin removal) [1]: 3.0 min | ACF-SBX >95% (estimated time to achieve designated toxin removal) [1]: 15.0 min | ACF-H 50% (estimated time to achieve designated toxin removal) [2]: 3.0 min | ACF-H >95% (estimated time to achieve designated toxin removal) [2]: 15.0 min | ACF-OH 50% (estimated time to achieve designated toxin removal) [3]: 30.0 min | ACF-OH >95% (estimated time to achieve designated toxin removal) [3]: 55.0 min

CC(C)(c1ccc(O)cc1)c1ccc(O)cc1 [bisphenol A]
ACF-SBX 50% (estimated time to achieve designated toxin removal) [1]: 4.0 min | ACF-SBX >95% (estimated time to achieve designated toxin removal) [1]: 30.0 min | ACF-H 50% (estimated time to achieve designated toxin removal) [2]: 5.0 min | ACF-H >95% (estimated time to achieve designated toxin removal) [2]: 30.0 min | ACF-OH 50% (estimated time to achieve designated toxin removal) [3]: 45.0 min | ACF-OH removal reached, in brackets in the >95% column [3]: (70%) | logP [4]: 3.32

Clc1ccccc1 [chlorobenzene]
ACF-SBX 50% (estimated time to achieve designated toxin removal) [1]: 0.3 min | ACF-SBX >95% (estimated time to achieve designated toxin removal) [1]: 2.0 min | ACF-H 50% (estimated time to achieve designated toxin removal) [2]: 0.3 min | ACF-H >95% (estimated time to achieve designated toxin removal) [2]: 2.0 min | ACF-OH 50% (estimated time to achieve designated toxin removal) [3]: 0.3 min | ACF-OH >95% (estimated time to achieve designated toxin removal) [3]: 2.0 min

CCN(CC)N=O [NDEA, N-nitrosodiethylamine]
ACF-SBX 50% (estimated time to achieve designated toxin removal) [1]: 4.6 min | ACF-SBX >95% (estimated time to achieve designated toxin removal) [1]: 60.0 min | ACF-H 50% (estimated time to achieve designated toxin removal) [2]: 3.8 min | ACF-H removal reached, in brackets in the >95% column ([2]; >95% not reached): (93%) | ACF-OH 50% (estimated time to achieve designated toxin removal) [3]: 30.0 min | ACF-OH removal reached, in brackets in the >95% column [3]: (59%) | logP [4]: 0.48
